Earlier results in PubChem BioAssay AID1259409 (Chemical Carcinogenesis Research Information System (CCRIS), 2018).

System: rodent chemically induced tumor inhibition, incidence and multiplicity
Experiment: CCRIS tumor inhibitor studies
Conditions: Promoter: NONE USED

O=c1oc2c(O)c(O)cc3c(=O)oc4c(O)c(O)cc1c4c23
tumour outcome (control, treated, inhibition, significance) (Carcinogen: 2-AMINO-1-METHYL-6-PHENYL-1H-IMIDAZO[4,5-B]PYRID INE, 105650-23-5, Dose [Inhibitor]: 0, 0.1% IN THE DIET FOR 52 WK (STUDY DURATION: 52 WK), Route [Inhibitor]: ORAL, Species: RAT, Strain/Sex: F344/FEMALE, Target Tissue: Type of Lesion: MAMMARY GLAND: ADENOCARCINOMA, Dose [Carcinogen]: 0.02% IN THE DIET FOR 52 WK): 8/20 (40%), 5/19 (26%), 35%, not significant
tumour outcome (control, treated, inhibition, significance) (Carcinogen: 2-AMINO-1-METHYL-6-PHENYL-1H-IMIDAZO[4,5-B]PYRID INE, 105650-23-5, Dose [Inhibitor]: 0, 0.1% IN THE DIET FOR 52 WK (STUDY DURATION: 52 WK), Route [Inhibitor]: ORAL, Species: RAT, Strain/Sex: F344/FEMALE, Target Tissue: Type of Lesion: MAMMARY GLAND: FIBROADENOMA, Dose [Carcinogen]: 0.02% IN THE DIET FOR 52 WK): 2/20 (10%), 0/19 (0%), 100%, not significant
tumour outcome (control, treated, inhibition, significance) (Carcinogen: 2-AMINO-1-METHYL-6-PHENYLIMIDAZO[4,5-B]PYRIDINE, 105650-23-5, Dose [Inhibitor]: 0, 0.1% IN DIET FOR 52 WK CONCURRENTLY WITH CARCINOGEN TREATMENT (STUDY DURATION: 52 WK), Route [Inhibitor]: ORAL, Species: RAT, Strain/Sex: F344/FEMALE, Target Tissue: Type of Lesion: LARGE INTESTINE: ADENOMA OR CARCINOMA, Dose [Carcinogen]: 0.02% IN DIET FOR 52 WK): 2/18 (11%), 3/18 (17%), -55%, not significant
tumour outcome (control, treated, inhibition, significance) (Carcinogen: 2-AMINO-1-METHYL-6-PHENYLIMIDAZO[4,5-B]PYRIDINE, 105650-23-5, Dose [Inhibitor]: 0, 0.1% IN DIET FOR 52 WK CONCURRENTLY WITH CARCINOGEN TREATMENT (STUDY DURATION: 52 WK), Route [Inhibitor]: ORAL, Species: RAT, Strain/Sex: F344/FEMALE, Target Tissue: Type of Lesion: MAMMARY GLAND: ADENOCARCINOMA, Dose [Carcinogen]: 0.02% IN DIET FOR 52 WK): 8/20 (40%), 5/19 (26%), 35%, not significant
tumour outcome (control, treated, inhibition, significance) (Carcinogen: 3-METHYLCHOLANTHRENE, 56-49-5, Dose [Inhibitor]: 1 UMOL 2/WK FOR 16 WK APPLIED 1 HR PRIOR TO EACH CARCINOGEN TREATMENT (STUDY DURATION: 16 WK), Route [Inhibitor]: DERMAL, Species: MOUSE, Strain/Sex: BALB/FEMALE, Target Tissue: Type of Lesion: SKIN: TUMOR, Dose [Carcinogen]: 1.5 UMOL 2/WK FOR 16 WK): 100%, 50%, 50%, not calculated
tumour outcome (control, treated, inhibition, significance) (Carcinogen: 3-METHYLCHOLANTHRENE, 56-49-5, Dose [Inhibitor]: 1.0 UMOL APPLIED 1 HR PRIOR TO EACH CARCINOGEN DOSE 2/WK FOR 16 WK (STUDY DURATION: 16 WK), Route [Inhibitor]: DERMAL, Species: MOUSE, Strain/Sex: BALB/FEMALE, Target Tissue: Type of Lesion: SKIN: TUMOR, Dose [Carcinogen]: 1.5 UMOL 2/WK FOR 16 WK): 100%, 50%, 50%, not calculated
tumour outcome (control, treated, inhibition, significance) (Carcinogen: 3-METHYLCHOLANTHRENE, 56-49-5, Dose [Inhibitor]: 2 UMOL 2/WK FOR 16 WK APPLIED 1 HR PRIOR TO EACH CARCINOGEN TREATMENT (STUDY DURATION: 16 WK), Route [Inhibitor]: DERMAL, Species: MOUSE, Strain/Sex: BALB/FEMALE, Target Tissue: Type of Lesion: SKIN: TUMOR, Dose [Carcinogen]: 1.5 UMOL 2/WK FOR 16 WK): 100%, 40%, 60%, not calculated
tumour outcome (control, treated, inhibition, significance) (Carcinogen: 3-METHYLCHOLANTHRENE, 56-49-5, Dose [Inhibitor]: 2 UMOL APPLIED 1 HR PRIOR TO EACH CARCINOGEN DOSE 2/WK FOR 16 WK (STUDY DURATION : 16 WK), Route [Inhibitor]: DERMAL, Species: MOUSE, Strain/Sex: BALB/FEMALE, Target Tissue: Type of Lesion: SKIN: TUMOR, Dose [Carcinogen]: 1.5 UMOL 2/WK FOR 16 WK): 100%, 40%, 60%, not calculated
tumour outcome (control, treated, inhibition, significance) (Carcinogen: 4-(METHYLNITROSAMINO)-1-(3-PYRIDYL)-1-BUTANONE, 64091-91-4, Dose [Inhibitor]: 0, 4 G/KG DIET 2 WK PRIOR TO CARCINOGEN TREATMENT AND CONTINUING FOR STUDY DURATION (STUDY DURATION: 26 MO), Route [Inhibitor]: ORAL, Species: MOUSE, Strain/Sex: STRAIN-A/FEMALE, Target Tissue: Type of Lesion: LUNG: ADENOMA, Dose [Carcinogen]: TOTAL DOSE 9.2 MG/MOUSE ADMINISTERED IN DRINKING WATER): 100%, 96%, 4%, not calculated
tumour outcome (control, treated, inhibition, significance) (Carcinogen: 4-(METHYLNITROSAMINO)-1-(PYRIDYL)-1-BUTANONE, 64091-91-4, Dose [Inhibitor]: 0, 4 G/KG DIET (37 UMOL/D) BEGINNING 2 WK PRIOR TO CARCINOGEN DOSE AND CONTINUING FOR DURATION OF STUDY (STUDY DURATION:, Route [Inhibitor]: ORAL, Species: MOUSE, Strain/Sex: STRAIN-A/FEMALE, Target Tissue: Type of Lesion: LUNG: ADENOMA, Dose [Carcinogen]: 9.2, 9.4 MG/MOUSE IN DRINKING WATER DURING 7 WK): 28/28 (100%), 24/25 (96%), 4%, not significant
tumour outcome (control, treated, inhibition, significance) (Carcinogen: 4-(METHYLNITROSOAMINO-1-(PYRIDYL)-1-BUTANONE, 64091-91-4, Dose [Inhibitor]: 0, 4 G/KG DIET BEGINNING 1 D POST CARCINOGEN DOSE AND CONTINUING FOR 16 WK (STUDY DURATION: 16 WK), Route [Inhibitor]: ORAL, Species: MOUSE, Strain/Sex: STRAIN-A/FEMALE, Target Tissue: Type of Lesion: LUNG: ADENOMA, Dose [Carcinogen]: 2 MG IN 0.2 ML OF O.9% NACL ONCE): 100%, 100%, 0%, not significant
